In PubChem BioAssay AID623988 (Vanderbilt High Throughput Screening Facility, 2012):

Target: Voltage-gated inwardly rectifying potassium channel KCNH2 (Homo sapiens) (UniProt Q12809)
Experiment: hERG channel inhibition by thallium flux, dose response, selectivity assay for GIRK activator project, cell-based, concentration-response (AID 623988)
Settings: hERG-expressing HEK293 cells, thallium flux fluorescence

Voltage-gated inwardly rectifying potassium channel KCNH2 (Homo sapiens), sequence (Q12809 whole entry, looked up): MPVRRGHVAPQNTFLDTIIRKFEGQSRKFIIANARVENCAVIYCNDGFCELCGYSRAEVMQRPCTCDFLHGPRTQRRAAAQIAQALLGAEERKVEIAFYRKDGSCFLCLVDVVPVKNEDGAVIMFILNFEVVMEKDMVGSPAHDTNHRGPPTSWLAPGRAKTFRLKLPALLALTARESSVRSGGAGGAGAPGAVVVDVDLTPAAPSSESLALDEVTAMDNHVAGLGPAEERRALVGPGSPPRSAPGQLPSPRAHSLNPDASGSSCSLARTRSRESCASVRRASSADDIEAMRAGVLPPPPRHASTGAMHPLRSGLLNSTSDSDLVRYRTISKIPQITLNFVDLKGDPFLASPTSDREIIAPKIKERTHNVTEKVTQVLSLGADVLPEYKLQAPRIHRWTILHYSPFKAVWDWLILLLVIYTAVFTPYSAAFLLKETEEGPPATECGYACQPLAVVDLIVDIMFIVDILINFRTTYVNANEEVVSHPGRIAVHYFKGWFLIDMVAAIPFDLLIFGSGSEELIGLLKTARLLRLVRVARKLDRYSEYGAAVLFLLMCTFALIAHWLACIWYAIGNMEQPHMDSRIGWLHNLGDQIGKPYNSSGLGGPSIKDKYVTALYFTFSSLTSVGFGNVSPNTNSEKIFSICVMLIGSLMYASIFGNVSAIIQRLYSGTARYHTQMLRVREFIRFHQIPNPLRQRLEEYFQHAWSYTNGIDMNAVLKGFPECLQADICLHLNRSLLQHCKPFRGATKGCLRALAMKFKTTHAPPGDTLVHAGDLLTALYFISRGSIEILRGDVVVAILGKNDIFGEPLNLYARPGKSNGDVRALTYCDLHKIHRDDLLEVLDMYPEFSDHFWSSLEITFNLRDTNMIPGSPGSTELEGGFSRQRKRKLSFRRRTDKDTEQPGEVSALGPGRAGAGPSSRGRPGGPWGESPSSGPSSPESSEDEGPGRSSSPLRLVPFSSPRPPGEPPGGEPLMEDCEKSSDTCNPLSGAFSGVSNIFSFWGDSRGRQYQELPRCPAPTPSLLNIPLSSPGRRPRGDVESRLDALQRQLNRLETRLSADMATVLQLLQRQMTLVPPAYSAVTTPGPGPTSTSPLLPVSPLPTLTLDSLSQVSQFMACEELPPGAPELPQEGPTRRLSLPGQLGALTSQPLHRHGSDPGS

## Cc1cc(NC(=O)Nc2ccc(F)c(F)c2)n(-c2ccccc2)n1
  IC50: 10.8 µM
